The record followed here is ChEMBL document CHEMBL3112516, “Design, synthesis and biological evaluation of novel peptide MC62 analogues as potential antihyperglycemic agents” (2014).

Activity calls are given as the source filed them. The calls are words filed in the database; no cut-off is given here.

The test system of experiment [1] is Mus musculus. Nature of the experiment: Antihyperglycemic activity in overnight fasted STZ-induced diabetic mouse model assessed as blood glucose level at 1 umol/kg, ip qd administered for 20 days measured after 20 days relative to control. The format is functional.
For experiment [2], the system named is MIN6. Nature of the experiment: Inhibition of palmitate-induced apoptosis in mouse MIN6 cells assessed as reduction of apoptotic cells at 10 nM preincubated for 24 hrs followed by palmitate challenge measured after 1 hr by Hoechst 33342 staining-based microscopic analysis. Format: functional, cell-based.
The subject of experiment [3] is MIN6. Nature of the experiment: Inhibition of H202-induced apoptosis in mouse MIN6 cells assessed as change in nuclear fragmentation at 10 nM preincubated for 24 hrs followed by H202 challenge measured after 1 hr by Hoechst 33342 staining-based microscopic analysis. The format is functional, cell-based.
For experiment [4], the system named is Mus musculus. Description: Antioxidant activity in STZ-induced mouse model assessed as GSH level at 1 umol/kg, ip administered for 20 days measured on day 21 (reference value: 8.13 +/- 0.13 mg/ml). Format: functional.
Experiment [5] relates to Mus musculus. Nature of the experiment: Antioxidant activity in STZ-induced mouse model assessed as GSH-PX level at 1 umol/kg, ip administered for 20 days measured on day 21 (reference value: 1449.23 +/- 49.42 U/ml). Format: functional.
The subject of experiment [6] is Mus musculus. Nature of the experiment: Antioxidant activity in STZ-induced mouse model assessed as MDA level at 1 umol/kg, ip administered for 20 days measured on day 21 (reference value: 12.49 +/- 1.35 nmol/ml). The format is functional.
In experiment [7] the test system is Mus musculus. Description: Antioxidant activity in STZ-induced mouse model assessed as SOD level at 1 umol/kg, ip administered for 20 days measured on day 21 (reference value: 41.58 +/- 2.89 U/ml). Format: functional.
Experiment [8] relates to Mus musculus. Nature of the experiment: Antihyperglycemic activity in STZ-induced mouse model assessed as increase in islet number at 1 umol/kg, ip by hematoxylin and eosin staining technique. Format: functional, organism-based.
The test system of experiment [9] is Mus musculus. Description: Antihyperglycemic activity in overnight fasted STZ-induced mouse model assessed as decrease in glycated hemoglobin level at 1 umol/kg, ip administered for 20 days measured on day 21. Format: functional, organism-based.
The subject of experiment [10] is Mus musculus. Nature of the experiment: Antihyperglycemic activity in overnight fasted STZ-induced mouse model assessed as reduction of fasting blood glucose level at 1 umol/kg, ip administered for 20 days measured every 5 days up to 20 days. The format is functional, organism-based.
Experiment [11] concerns Mus musculus. Description: Antihyperglycemic activity in STZ-induced mouse model assessed as decrease in body weight at 1 umol/kg, ip administered for 20 days measured every 5 days up to 20 days. Format: functional, organism-based.
Experiment [12] deals with Mus musculus. Description: Antihyperglycemic activity in STZ-induced mouse model assessed as decrease in water intake at 1 umol/kg, ip administered for 20 days measured every 5 days up to 20 days. Format: functional, organism-based.
Experiment [13] relates to Mus musculus. Description: Antihyperglycemic activity in STZ-induced mouse model assessed as decrease in food intake at 1 umol/kg, ip administered for 20 days measured every 5 days up to 20 days. Format: functional, organism-based.
Experiment [14] has as its system Mus musculus. Description: Antihyperglycemic activity in mouse assessed as decrease in blood glucose level at 1 umol/kg, ip pretreated with compound followed by glucose challenge measured after 30 to 60 mins by oral glucose tolerance test. Format: functional, organism-based.

Take H-KGNMKHMAGAA-OH: in the experiment with Mus musculus [1], the Activity is 15.28 mmol/L. On the same count and under the same terms, as for H-GTNMKHMAGAA-OH, the figure is 15.26 mmol/L; as for H-KTGMKHMAGAA-OH, 14.36 mmol/L; as for H-KTNMKGMAMAA-OH, 14.03 mmol/L. In the case of H-KTNMKHMAGAA-OH, in the experiment with Mus musculus [1], the Activity was 16.16 mmol/L. With H-KMNMKGMAGAA-OH, the Activity with Mus musculus [1] came out at 13.44 mmol/L.

Consider H-KTNMKHGAGAA-OH, for which the Activity with Mus musculus [1] is recorded as 21.82 mmol/L. H-KTNMKGMAGAM-OH: in the experiment with Mus musculus [1], the Activity amounted to 20.18 mmol/L. For the substance H-KTNMKHMGGAA-OH, the Activity in the experiment on Mus musculus [1] is recorded as 18.02 mmol/L. Consider H-MTNMKGMAGAA-OH, for which the Activity in the experiment with Mus musculus [1] is on record as 20.83 mmol/L. Consider H-KTNMKGMAGMA-OH, for which the Activity in the experiment on Mus musculus [1] was 17.38 mmol/L. On to H-KTNMKGMAGAA-OH, for which, in the experiment with Mus musculus [1], the Activity stood at 13.29 mmol/L.

For the substance H-KTMMKGMAGAA-OH, the result in the experiment with MIN6 [2], in the experiment on MIN6 [3], with Mus musculus [8], in the experiment on Mus musculus [9], with Mus musculus [10] and in the experiment on Mus musculus [11] was Active. Moreover, the result with Mus musculus [12], with Mus musculus [13] and in the experiment with Mus musculus [14] was Active. Moreover, the Activity worked out at 12.14 mg/mL in the experiment with Mus musculus [4]; 1707.69 U/ml with Mus musculus [5]; 7.61 nmol/mL with Mus musculus [6]; 46.96 U/ml in the experiment on Mus musculus [7]; 11.8 mmol/L in the experiment with Mus musculus [1]. Turning to H-KTNMGHMAGAA-OH, in the experiment on Mus musculus [1], the Activity was 18.52 mmol/L.

H-KTNGKHMAGAA-OH: the Activity in the experiment with Mus musculus [1] is 18.34 mmol/L.
